Source: ChEMBL document CHEMBL5465560, “Selectivity Literature for EUbOPEN Chemogenomic Library” (2024)
Numbering of substitutions follows the chain as printed.

How the values were obtained:
Conditions in all cases: at 1 µM
[1] = system: T1, Receptor-type tyrosine-protein kinase FLT3 (Homo sapiens), P36888 [D835V]; assay: (§1) Selectivity interaction (KinomeScan (DiscoverX)) EUB0000229b FLT3
T1 sequence (whole entry): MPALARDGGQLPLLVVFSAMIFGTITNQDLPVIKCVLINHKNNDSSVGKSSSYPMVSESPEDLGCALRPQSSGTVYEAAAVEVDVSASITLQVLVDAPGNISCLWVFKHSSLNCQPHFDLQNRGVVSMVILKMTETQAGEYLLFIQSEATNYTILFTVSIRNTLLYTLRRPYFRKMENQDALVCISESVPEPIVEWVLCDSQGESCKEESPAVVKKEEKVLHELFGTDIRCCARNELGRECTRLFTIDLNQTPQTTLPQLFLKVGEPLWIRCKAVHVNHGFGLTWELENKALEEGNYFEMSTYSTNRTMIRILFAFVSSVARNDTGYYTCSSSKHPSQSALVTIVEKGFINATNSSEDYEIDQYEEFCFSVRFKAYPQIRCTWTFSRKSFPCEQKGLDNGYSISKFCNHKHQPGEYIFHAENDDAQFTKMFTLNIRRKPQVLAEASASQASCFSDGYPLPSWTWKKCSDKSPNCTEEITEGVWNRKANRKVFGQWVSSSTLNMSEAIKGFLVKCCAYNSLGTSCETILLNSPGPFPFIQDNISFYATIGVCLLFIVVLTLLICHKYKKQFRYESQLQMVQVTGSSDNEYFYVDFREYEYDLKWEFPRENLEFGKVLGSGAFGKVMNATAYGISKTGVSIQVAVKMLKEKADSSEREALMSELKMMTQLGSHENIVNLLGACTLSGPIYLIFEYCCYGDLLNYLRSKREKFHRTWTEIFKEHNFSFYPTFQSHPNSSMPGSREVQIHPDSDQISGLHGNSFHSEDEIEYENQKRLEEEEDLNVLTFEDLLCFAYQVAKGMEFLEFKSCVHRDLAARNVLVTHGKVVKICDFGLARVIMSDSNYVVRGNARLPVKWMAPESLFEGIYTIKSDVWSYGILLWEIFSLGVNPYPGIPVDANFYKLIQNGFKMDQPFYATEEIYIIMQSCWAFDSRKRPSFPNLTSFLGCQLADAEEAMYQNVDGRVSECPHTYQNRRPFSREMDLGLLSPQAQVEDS

[2] = system: T2, Receptor-type tyrosine-protein kinase FLT3 (Homo sapiens), P36888 [D835Y]; assay: as §1
T2 sequence (whole entry): T1 sequence (whole entry) with V835Y

[3] = system: T3, Receptor-type tyrosine-protein kinase FLT3 (Homo sapiens), P36888 [K663Q]; assay: as §1
T3 sequence (whole entry): T1 sequence (whole entry) with K663Q, V835D

For `COc1cc(N(C)c2ccnc3ccc(C(F)(F)F)cc23)cc(OC)c1OC`, the % binding [1] was 88%, the % binding [2] was 69% and the % binding [3] was 76%.
